Test results: publication PMC12195738 (Pharmaceuticals, 2025)
Like-named read-outs stand apart in the source and are kept apart here.

How the values were obtained:
[1] = Shake-flask log D (n-octanol/DPBS); format: physicochemical; details: pH increased from 6.0 to 10.0
Protocol: Equal volumes of n-octanol and DPBS were mixed and shaken at room temperature for 24 h using an incubator shaker (Lab-Line Instruments, Inc., Melrose Park, IL, USA) to achieve mutual saturation. The pre-saturated n-octanol and DPBS phases were then carefully transferred into separate centrifuge tubes and centrifuged (Centrifuge 5430 R, Eppendorf AG, Hamburg, Germany) at 5000× g for 20 min to ensure complete phase separation.
Flu-Na solutions were prepared at a final concentration of 1 mg/mL by dissolving Flu-Na in pre-saturated DPBS, followed by pH adjustment to approximately 6, 7, 8, 9, and 10 using sodium hydroxide or hydrochloric acid solutions. […]
The concentrations of Flu-Na in both phases were measured at 492 nm using the microplate reader (SpectraMax iD5, Molecular Devices, San Jose, CA, USA). Calibration curve standards were prepared using DPBS adjusted to the corresponding pH values to ensure accurate quantification under each condition. The log D was calculated as the base-10 logarithm of the concentration ratio between the n-octanol phase and the aqueous phase.

porcine nasal mucosa [2] = assay: Flu-Na permeability across IPA-damaged porcine nasal mucosa (Franz diffusion cells); format: in vitro ADME, Sus scrofa domesticus
Protocol: To systematically investigate this issue, nasal mucosa tissues harvested from the same pig were immersed in 10%, 50%, or 100% IPA for 30 min to induce graded levels of chemical damage. A parallel control sample was incubated in DPBS under identical conditions. Flu-Na permeability was then measured as an indicator of mucosal integrity. This experiment was independently repeated in tissues from three different pigs to ensure reproducibility. Representative images of nasal mucosa following IPA-induced damage are shown in Figure 9, and the corresponding Papp values, normalized to a standardized mucosal thickness of 0.80 mm, are presented in Figure 10.
Tissues obtained from the same pig were used to evaluate the effects of different IPA concentrations and the DPBS control within a single experimental set. To ensure reproducibility, the entire experiment was independently repeated using tissues from three different pigs.
For each experimental set, three pieces of nasal mucosa tissue from the same pig were submerged in 3 mL of IPA at concentrations of 10%, 50%, or 100% for 30 min to induce graded levels of epithelial damage. A parallel control tissue sample from the same pig was submerged in 3 mL of DPBS under identical conditions. Following exposure, all tissues were thoroughly rinsed with DPBS to remove residual solvent and were immediately mounted in Franz diffusion cells for permeability testing.
Nasal mucosal permeability was evaluated using a Phoenix™ DB-6 Franz diffusion system (Teledyne Hanson Research, Los Angeles, CA, USA), equipped with a diffusion area of 1.0 cm^2 and a receptor volume of 10 mL. The nasal mucosa was mounted between the donor and receptor chambers, with the epithelial side facing the donor compartment. […]
The Flu-Na loading solution was prepared at a fixed concentration of 1 mg/mL by dissolving 25 mg of Flu-Na in 25 mL of DPBS using volumetric flasks. […] The supernatants were collected for microplate reader (SpectraMax iD5, Molecular Devices, San Jose, CA, USA) analysis.

[3] = Ex vivo permeation across porcine nasal mucosa in Franz diffusion cells; format: in vitro ADME, Sus scrofa domesticus; details: pig
Protocol: (§1) Nasal mucosa tissues were carefully dissected from the lower turbinates within the nasal cavity. Immediately after excision, the tissues were immersed in chilled DPBS to prevent desiccation and to preserve structural integrity. The samples were then cut into appropriate sizes, and mucosal thickness was measured using an electronic digital caliper (Fisher Scientific, Waltham, MA, USA) as described in previous work. […] The nasal mucosa was mounted between the donor and receptor chambers, with the epithelial side facing the donor compartment. DPBS was used as the receptor medium and maintained at 37 ± 0.5 °C under continuous stirring at 600 rpm. At predetermined time points (0.5, 1, 2, 3, 4, 5, 6, 7, and 8 h), 0.5 mL of sample was withdrawn from the receptor compartment and immediately replaced with fresh DPBS to maintain sink conditions. The melatonin loading solution was prepared by dissolving an appropriate amount of melatonin powder in 5 mL of DPBS, stirring for 15 min, and filtering through a 0.2 µm nylon membrane filter (Fisher Scientific, Waltham, MA, USA). […] At the start of the experiment, 0.5 mL of melatonin loading solution was added to the donor compartment. Receptor samples collected at each time point were mixed with an equal volume of acetonitrile, vortexed, and centrifuged (AccuSpin Micro17, Fisher Scientific, Waltham, MA, USA) at 10,000× g for 20 min. The resulting supernatants were collected for HPLC analysis. […] Receptor samples collected at each time point were centrifuged (AccuSpin Micro17, Fisher Scientific, Waltham, MA, USA) directly at 10,000× g for 20 min. The supernatants were collected for microplate reader (SpectraMax iD5, Molecular Devices, San Jose, CA, USA) analysis. The permeation curve is reported as percentage of drug permeated and was computationally corrected for the withdrawn volume using an Excel (Microsoft, Redmond, WA, USA) add-in program DDSolver 1.0 [53]. Papp were calculated as described in previous work. Numerical simulations were performed using COMSOL Multiphysics® version 6.2 (COMSOL Inc., Burlington, MA, USA), following the methodology established in our previous study. The simulations were based on Fick’s law of diffusion, describing solute concentration changes over time and space within a defined three-dimensional geometry. The “Transport of Diluted Species” physics interface was employed to simulate drug diffusion dynamics, while adsorption effects were incorporated to account for drug retention within the nasal mucosa. […] To address this, the simulation model was first fitted to experimentally obtained permeation profiles to extract key transport parameters. These parameters were subsequently used to normalize each permeation curve to a standardized mucosal thickness of 0.80 mm. Thickness correction minimized the impact of variability and enabled more accurate and consistent comparisons across experimental conditions.

[4] = parameters: method as in PMID 9232516; details: reported in the literature; cited from earlier work
[5] = Visual appearance of Flu-Na solutions at different pH values; format: physicochemical; details: 1 mg/mL, pH 4.85
Protocol: Solutions were prepared at a concentration of 1 mg/mL, and visual appearance was recorded after pH adjustment.

[6] = parameters: method as in doi:10.2343/geochemj.2.0226; details: cited from earlier work
porcine nasal mucosa [7] = assay: Ex vivo permeation across porcine nasal mucosa in Franz diffusion cells; format: in vitro ADME, Sus scrofa domesticus
Protocol: as §1

[8] = different-pig (inter-individual) group, n = 3, simulation-based normalization, read-out: mean Papp after normalization to standardized thickness of 0.80 mm
[9] = same-pig (intra-individual) group, n = 3, simulation-based normalization, read-out: mean Papp after normalization to standardized thickness of 0.80 mm

Row | SMILES | log D (shake-flask), pH dependency [1] | Flu-Na permeability (Papp) vs DPBS negative control, preliminary study (porcine nasal mucosa [2]; 10% IPA as positive control, groups from different donor pigs, unpublished data) | trend of Papp values with IPA concentration (porcine nasal mucosa [2]; escalating IPA concentrations (10%, 50%, and 100%), 30 min) | Flu-Na permeability (Papp) vs DPBS negative control (porcine nasal mucosa [2]; mucosa immersed in 10% IPA for 30 min, same pig, normalized to 0.80 mm, three pigs) | Papp at 8 h [3, 8] [×10⁻⁶ cm/s] | Papp at 8 h [3, 9] [×10⁻⁶ cm/s] | log P [4] | visual appearance of solution [5] | log P ([6]; pH 4.29) | log P ([6]; pH 7.5) | decrease of CV of Papp by normalization (porcine nasal mucosa [7]; different-pig group) [%] | decrease of CV of Papp by normalization (porcine nasal mucosa [7]; same-pig group) [%] | Papp at 8 h ([3]; different-pig (inter-individual) group, n = 3, 8 h Franz diffusion, read-out: mean Papp before thickness normalization) [×10⁻⁶ cm/s] | Papp at 8 h, 1008 μg/mL ([3]; same-pig (intra-individual) group, n = 3, 8 h Franz diffusion, read-out: mean Papp before thickness normalization) [×10⁻⁶ cm/s]
1 | O=C([O-])c1ccccc1-c1c2ccc(=O)cc-2oc2cc([O-])ccc12.[Na+].[Na+] [Flu-Na, Fluorescein sodium salt] | progressively more negative | paradoxical decrease | general trend of increasing Papp values | lower | 7.33 ± 1.6 | 5.28 ± 0.18 | −0.67 to −1.52 | precipitation observed | – | – | – | – | – | –
2 | O=C1OC2(c3ccc(O)cc3Oc3cc(O)ccc32)c2ccccc21 [fluorescein] | – | – | – | – | – | – | – | – | approximately 2.78 | −0.08 | – | – | – | –
3 | COc1ccc2[nH]cc(CCNC(C)=O)c2c1 [melatonin, Melatonin] | – | – | – | – | 10.5 ± 0.42 | 10 ± 0.78 | – | – | – | – | 5.7 | 16.8 | 14.6 ± 1.42 | 14.1 ± 3.47
